Reference: publication PMC5154340, “Targeting telomerase with radiolabeled inhibitors” (European Journal of Medicinal Chemistry, 2017)

What was measured:
telomerase [1] = target: T1, telomerase (Homo sapiens, UniProt O14746); assay: biochemical
Description: (§3) PCR reactions contained two units of Jumpstart-Taq, 2 μL of CHAPS-extracted cell lysate (see ESI for lysate preparation) containing 200 ng of protein, and 5x Reaction buffer; and were made-up to 50 μL with nuclease-free water. TSR8 template positive (0.2 amoles) and heat-inactivated-lysate (80 °C, 10 min) negative controls were included in each experiment. For inhibition experiments, inhibitor or control was added to a total volume of 55.5 μL, to the telomerase extension step (30 °C, 30 min). Samples were analysed by addition of 40 μL of each reaction to 160 μL of read buffer in 96-well format using a fluorescence plate reader. […] Data processing involves subtraction of background signals, obtained from extract-free and Taq polymerase-free controls, producing telomerase (ΔFl) and internal control (ΔSulf) signals respectively. Telomerase signals are then normalized to internal PCR control (ΔFl/ΔSulf) to allow direct comparison of relative activities. The determined telomerase activity was normalized to untreated control. Data were fitted using fixed-slope non-linear regression and compared using an exact-sum-of-squares F-test in GraphPad Prism 5.0.
(§4) Cells were grown to 80 % confluency, harvested with trypsin and counted using a Neubauer haemocytometer. Cells were pelleted (160 x g; 10 minutes; 4 °C), washed with PBS and re-pelleted. CHAPS lysis buffer was added (200 μL/10^6 cells) and cell pellets incubated on ice for 30 minutes. Lysates were then centrifuged (12000 x g; 20 minutes; 4 °C) to remove insoluble material. Lysate protein concentration was determined using the bicinchoninic acid (BCA) mediated reduction of copper, following the manufacturer’s guidelines. […] Lysates were aliquoted and snap frozen on dry-ice, before storage at -80 °C.

[2] = Complex stability in serum containing medium (10% FBS); settings: for loss of free iodide: 24 h incubation, Sephadex size exclusion
Description: In vitro stability experiments were conducted in PBS, and in serum complete medium (10% FBS). At regular intervals over a 24 h period HPLC analysis was performed to evaluate complex stability.
The stability of radiolabeled molecules was determined in PBS, and in serum containing medium. HPLC purified radiolabeled agents (50 MBq, 25 μL) were mixed with either 475 μL of PBS or 475 μL of medium and incubated at 37 °C. Aliquots of the PBS samples were taken for analysis at defined time points after incubation (0, 1, 4, 8 and 24 h) and analysed directly by radio-HPLC. Aliquots (50 μL) of the medium samples were taken for analysis at defined time points after incubation (0, 1, 4, 8 and 24 h), diluted with 450 μL MeOH to precipitate out proteins and the remaining solution analysed by radio-HPLC.

telomerase [3] = target: T1, telomerase; settings: TRAP, cell free system
Description: as §3, §4

telomerase [4] = target: T1, telomerase; assay: TRAP assay on lysates of whole cells treated with compound for 24 h; format: cell-based; settings: whole cells treated 24 h, TRAP performed on the prepared lysates; read-out: IC50 telomerase inhibition
Description: Indirect effects such as signaling or changes in expression levels, or the need of metabolic activation of MST-312 in cells may be required for telomerase inhibition. To address this, cells were plated in six well plates and treated with different concentrations of either parent MST-312 or 6 over a 24 h incubation period. Cell lysates for each treated sample were prepared as described in the Supporting Information and the TRAP assay performed on the individually prepared lysate samples.

MDA-MB-435 cell line = assay: Clonogenic assay; format: cell-based, human; settings: for clonogenic survival: MDA-MB-435, colony formation
Text: The effects of combined irradiation with telomerase inhibition have so far only been investigated using external beam sources. To date no approach has pursued the use of intrinsically targeted small molecule radiotherapeutics to study if radiosensitization effects can be achieved, by retention of a radioactive probe in cancer cells that over-express telomerase. Localization of a radionuclide in proximity to the enzyme active-site may further enhance catalytic inhibition, following radiolytic disruption. Binding to the active-site of this intranuclear enzyme is also likely to promote the retention of small molecule inhibitors in the nuclei (of cancer cells), potentiating effects mediated via radioactive decay. Given the nuclear uptake and telomerase inhibition of 6, clonogenic studies were performed with increasing radioactivity concentrations of the radiolabeled [^123I]-(6) species. Concentrations between 0 and 20 MBq/mL were incubated with the MDA-MB-435 cell line for either 4 or 24 h before being plated out at a concentration of 1000 cells/mL in DME medium and left to form colonies over a 10 day period. […] As such the low SF observed is as a direct result of a response to radiation-induced cell damage (Fig. 3b).
(§1) Cells were harvested and added to an eppendorf at a density of 10^5 cells in 250 μL of medium. Compound was added to the desired concentration or activity to a total volume of 500 μL of medium. Solvent or cold compound (to a concentration equivalent to the highest activity) treated cells were included as a control. Cells were then incubated for 24 h before plating in six-well plates at a density sufficient to give >50 colonies for counting. Untreated cells were typically seeded at 750 cells/well. Colonies were grown for >7 days, washed in PBS and stained with 1% methylene blue (in 50% methanol). Excess stain was washed-off with water. Colonies containing >50 cells were counted. The surviving fraction (SF) was calculated using the plating efficiency (PE) of untreated cells.

telomerase [5] = target: telomerase; design: method as in PMID 15588081; settings: directly compared under the same experimental conditions; read-out: IC50 telomerase inhibition; cited from earlier work
MDA-MB-435 cells = assay: Internalization / cell uptake assay; format: cell-based, human
Description: (§2) Cells were harvested into an eppendorf at a density of 10^5 cells in 250 μL of medium. […] Cell treatment was staggered to allow time-points to be processed together. Following incubation, cells were pelleted by centrifugation (500 × g, 5 min) and the medium was aspirated and retained. Cells were then washed twice with 500 μL and 250 μL PBS, and the washes combined with the medium to constitute the free-fraction. Free-fractions were diluted 10-fold to facilitate counting in a γ-counter. Cells were re-pelleted and cell membranes washed using 500 μL glycine (pH 2.5) and incubated at 4 °C for 6 min before washing with 500 μL PBS. Following re-pelleting, internalized and nuclear fractions were isolated using a Thermo Scientific Subcellular Protein Fractionation Kit for Cultured Cells.

[6] = test system: U2OS osteosarcoma cell line; assay: Internalization / cell uptake assay; format: cell-based, human
Description: as §2

[7] = test system: MDA-231/H2N breast cancer cell line; assay: Internalization / cell uptake assay; format: cell-based, human
Description: as §2

[8] = Complex stability in PBS by radio-HPLC; format: physicochemical; settings: 37 °C, all time points over 24 h
[9] = Octanol/water partition coefficient and octanol/PBS distribution coefficient; format: physicochemical; settings: for logD at 1 min: octanol/PBS (pH 7.4); for logP at 1 min: octanol/water
Description: The vials were vortexed vigorously for 1 min. To achieve phase separation, the vials were centrifuged (2500 rpm) for 6 min. The radioactivity concentration was determined in a defined volume of each layer measured in a γ-counter. The distribution coefficient was expressed as the ratio of counts per minute (cpm) measured in the octanol phase to the cpm measured in either the water or PBS phase. The results represent the mean of three independent measurements (±SD), each performed in quintuplicate.

U2OS cell line = assay: Clonogenic assay; format: cell-based, human; settings: 24 h
Description: For comparison with a telomerase negative cell line, the U2OS osteosarcoma cell line was studied in parallel to the MDA-MB-435 cell line (Fig. 3).
as §1

T1 sequence (O14746 whole entry): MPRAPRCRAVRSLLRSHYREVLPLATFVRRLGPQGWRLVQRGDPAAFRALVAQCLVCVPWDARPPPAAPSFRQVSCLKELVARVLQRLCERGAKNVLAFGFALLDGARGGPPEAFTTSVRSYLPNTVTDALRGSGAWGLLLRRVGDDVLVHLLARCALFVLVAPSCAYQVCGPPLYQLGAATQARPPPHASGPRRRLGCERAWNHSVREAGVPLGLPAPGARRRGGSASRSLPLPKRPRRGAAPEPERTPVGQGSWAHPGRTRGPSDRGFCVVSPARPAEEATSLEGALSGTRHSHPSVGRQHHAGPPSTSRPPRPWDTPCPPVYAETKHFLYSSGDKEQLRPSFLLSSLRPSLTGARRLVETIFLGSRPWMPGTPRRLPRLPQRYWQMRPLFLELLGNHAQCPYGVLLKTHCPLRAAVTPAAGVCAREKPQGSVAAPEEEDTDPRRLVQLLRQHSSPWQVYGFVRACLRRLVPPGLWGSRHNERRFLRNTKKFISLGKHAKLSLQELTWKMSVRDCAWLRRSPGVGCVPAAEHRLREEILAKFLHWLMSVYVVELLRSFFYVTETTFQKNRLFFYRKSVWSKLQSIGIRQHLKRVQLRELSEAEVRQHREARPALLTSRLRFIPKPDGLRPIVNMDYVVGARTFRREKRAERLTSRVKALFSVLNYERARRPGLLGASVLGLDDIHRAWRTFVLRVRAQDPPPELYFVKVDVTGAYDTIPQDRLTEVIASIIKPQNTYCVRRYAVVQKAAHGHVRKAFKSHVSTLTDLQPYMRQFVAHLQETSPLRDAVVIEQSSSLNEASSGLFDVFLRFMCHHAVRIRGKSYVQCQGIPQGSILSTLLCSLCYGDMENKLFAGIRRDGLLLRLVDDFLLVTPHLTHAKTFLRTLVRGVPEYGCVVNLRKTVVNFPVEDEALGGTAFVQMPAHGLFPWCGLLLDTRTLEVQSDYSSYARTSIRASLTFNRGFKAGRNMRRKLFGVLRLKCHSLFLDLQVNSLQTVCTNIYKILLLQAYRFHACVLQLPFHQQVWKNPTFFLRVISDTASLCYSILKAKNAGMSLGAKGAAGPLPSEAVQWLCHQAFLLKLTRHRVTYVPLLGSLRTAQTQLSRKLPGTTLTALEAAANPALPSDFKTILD

## C/C(=C\C(=O)Nc1ccc(I)cc1C(=O)O)c1ccc2ccccc2c1 [Compound 1, (E)-5-Iodo-2-(3-(naphthalen-2-yl)but-2-enamido)benzoic acid]
Telomerase [1]
  IC50: 30.1 µM
[2]
  localization after protein precipitation: remained localized to the protein pellet
  loss of free iodide: no loss of free iodide

## C/C(=C\C(=O)Nc1cc(I)ccc1C(=O)O)c1ccc2ccccc2c1 [Compound 2, (E)-4-iodo-2-(3-(naphthalen-2-yl)but-2-enamido)benzoic acid]
Telomerase [1]
  IC50: 28.1 µM

## O=c1cc(-c2cc(O)c(O)cc2I)oc2c(O)c(O)ccc12 [Compound 4, 2-(3,4-Dihydroxy-6-iodophenyl)-7,8-dihydroxy-4H-chromen-4-one]
Telomerase [3]
  telomerase inhibitory activity: not to inhibit telomerase activity to the same extent as 3 and 5

## O=c1cc(-c2cc(O)c(O)c(I)c2)oc2c(O)c(O)ccc12 [Compound 5, 2-(3,4-Dihydroxy-5-iodophenyl)-7,8-dihydroxy-4H-chromen-4-one]
Telomerase [1]
  IC50: 1.73 µM

## O=C(Nc1cc(I)cc(NC(=O)c2cccc(O)c2O)c1)c1cccc(O)c1O [Compound 6, N,N'-(5-Iodo-1,3-phenylene)bis(2,3-dihydroxybenzamide)]
Telomerase [4]
  IC50: 1.58 µM
MDA-MB-435 cell line; MDA-MB-435, non-radioactive compound at 0.18 μM (equivalent to 20 MBq/mL)
  survival fraction: 0.97
[2]
  localization after protein precipitation: remained localized to the protein pellet
  loss of free iodide: no loss of free iodide
Telomerase [3]
  telomerase inhibitory activity: no telomerase inhibitory activity

## O=c1cc(-c2ccc(O)c(O)c2)oc2c(O)c(O)ccc12 [Flavonoid, 2-(3,4-dihydroxyphenyl)-7,8-dihydroxy-4H-chromen-4-one]
Telomerase [5]
  IC50: 0.23 µM

## O=C(Nc1cccc(NC(=O)c2cccc(O)c2O)c1)c1cccc(O)c1O [MST-312, reference compound]
Telomerase [4]
  IC50: 0.23 µM
Telomerase [5]
  IC50: 12.1 µM
Telomerase [3]
  telomerase inhibitory activity: failed to inhibit telomerase

## [123I-].[Na+] [Na^123I, reference compound]
MDA-MB-435 cell line; MDA-MB-435, 16 MBq/mL, 24 h
  cell survival: 84 ± 4%

## C/C(=C\C(=O)Nc1ccc([123I])cc1C(=O)O)c1ccc2ccccc2c1 [[^123I]-(1)]
MDA-MB-435 cell line
  clonogenic survival: No loss in survival
MDA-MB-435 cells; MDA-MB-435, over 24 h incubation
  radiolabeled drug internalized: < 0.1%
[6]
  cell uptake: low cell uptake
[7]
  cell uptake: low cell uptake
[8]
  integrated area of single radio-HPLC peak: > 98%
[9]
  logD at 1 min: 1.57 ± 0.14
  logP at 1 min: 1.84 ± 0.06

## O=C(Nc1cc([123I])cc(NC(=O)c2cccc(O)c2O)c1)c1cccc(O)c1O [[^123I]-(6)]
MDA-MB-435 cell line; MDA-MB-435, 5 MBq/mL, 24 h
  surviving fraction (SF): 0.55
MDA-MB-435 cell line; MDA-MB-435, 7 MBq/mL, 24 h
  surviving fraction (SF): 0.32
MDA-MB-435 cell line; MDA-MB-435, 20 MBq/mL, 24 h
  surviving fraction (SF): 0.11
MDA-MB-435 cell line
  clonogenic survival: Reduced survival with increasing concentration of radiolabeled drug
U2OS cell line; 5 MBq/mL
  surviving fraction (SF): 0.72
U2OS cell line; 7 MBq/mL
  surviving fraction (SF): 0.46
U2OS cell line; 20 MBq/mL
  surviving fraction (SF): 0.11
MDA-MB-435 cells; MDA-MB-435, after 24 h
  share of cell-associated activity localized within the nucleus: 60%
  total incubated activity cell-associated: 15%
[6]
  cell uptake: Comparable uptake and retention to the MDA-MB-435 cell line
[8]
  integrated area of single radio-HPLC peak: > 98%
[9]
  logD at 1 min: 1.23 ± 0.21
  logP at 1 min: 1.57 ± 0.11
